In patent US20020169111A1, “Reversal of multidrug resistance in human colon carcinoma cells” (American Cyanamid Comany, priority 1998, published 2002):
Where two headings read alike, the source gives them in different places.

Experiments:
S1-M1-3.2 cells = conditions: for Per Cent Survival with 3.2 μM mitoxantrone / Per Cent Survival Alone / Difference Score: S1-M1-3.2 cells; for Per Cent Survival Alone: 3 days; for Difference Score: survival alone minus survival with 3.2 μM mitoxantrone
Description: One of the first reported molecules with reversing activity was verapamil, a calcium channel blocker. […] Cells were plated into 96-well dishes (100 μl/well) in growth medium supplemented with 5% FBS. […] Reversal agents were tested from 0.1-80 μM (triplicate points per dose). In parallel wells, cells were grown in the presence of the reversal agent alone.
The Difference Score is the difference in the percentage of cells surviving when the drug was given alone minus the percentage of cells surviving when the drug was given along with the antitumor agent.
Cell survival was estimated using the Sulforhodamine (SRB) assay.

S1-B1-20 cells = experiment: Reversal of resistance in P-gp expressing cells, alone or with 21 μM bisantrene; type: cell-based, human; design: Difference Score: unit not given here; conditions: for Per Cent Survival with 21 μM bisantrene / Per Cent Survival Alone / Difference Score: S1-B1-20 cells; for Difference Score: survival alone minus survival with 21 μM bisantrene
Description: To determine the specificity of FTC for non P-gp multidrug resistance, FTC was tested on S1-B1-20 cells which were selected for resistance to bisantrene and which express high levels of P-gp (Table 9)(Zhang, et al, Oncol. Res. 6291-301 (1994)). […] The 21 μM concentration of bisantrene is not inhibitory to the growth of the cells. Values shown are mean ± standard deviation from triplicate test wells.

P-gp expressing cells = conditions: P-gp reversal; cited from earlier work

For `COc1ccc(C(C#N)(CCCCCN2CCc3cc(OC)c(OC)cc3C2)Sc2ccc(C)cc2)cc1OC` (stereo not drawn) [α-(3,4-dimethoxyphenyl)-3,4-dihydro-6,7-dimethoxy-α-[(4-methylphenyl)thio]-2(1H)-isoquinolineheptanenitrile, reference compound], the “Per Cent Survival with 3.2 μM mitoxantrone” value (S1-M1-3.2 cells; drug 0.1 μM) was 98 ± 2 Per Cent, the “Per Cent Survival Alone” value (S1-M1-3.2 cells; drug 0.1 μM alone) was 98 ± 2 Per Cent and the “Difference Score” value (S1-M1-3.2 cells; drug 0.1 μM) was 0. For the same compound, the “Per Cent Survival with 3.2 μM mitoxantrone” value (S1-M1-3.2 cells; drug 0.5 μM) was 98 ± 0 Per Cent, the “Per Cent Survival Alone” value (S1-M1-3.2 cells; drug 0.5 μM alone) was 100 ± 0 Per Cent and the “Difference Score” value (S1-M1-3.2 cells; drug 0.5 μM) was 2. The “Per Cent Survival with 3.2 μM mitoxantrone” value (S1-M1-3.2 cells; drug 1 μM) was 99 ± 2 Per Cent, the “Per Cent Survival Alone” value (S1-M1-3.2 cells; drug 1 μM alone) was 101 ± 1 Per Cent and the “Difference Score” value (S1-M1-3.2 cells; drug 1 μM) was 2. For the same compound, the “Per Cent Survival with 3.2 μM mitoxantrone” value (S1-M1-3.2 cells; drug 5 μM) was 63 ± 8 Per Cent, the “Per Cent Survival Alone” value (S1-M1-3.2 cells; drug 5 μM alone) was 78 ± 8 Per Cent and the “Difference Score” value (S1-M1-3.2 cells; drug 5 μM) was 15. For the same compound, the “Per Cent Survival with 3.2 μM mitoxantrone” value (S1-M1-3.2 cells; drug 10 μM) was 36 ± 11 Per Cent, the “Per Cent Survival Alone” value (S1-M1-3.2 cells; drug 10 μM alone) was 39 ± 18 Per Cent and the “Difference Score” value (S1-M1-3.2 cells; drug 10 μM) was 3. The “Per Cent Survival with 3.2 μM mitoxantrone” value (S1-M1-3.2 cells; drug 20 μM) was 21 ± 10 Per Cent, the “Per Cent Survival Alone” value (S1-M1-3.2 cells; drug 20 μM alone) was 21 ± 13 Per Cent and the “Difference Score” value (S1-M1-3.2 cells; drug 20 μM) was 0. The “Per Cent Survival with 3.2 μM mitoxantrone” value (S1-M1-3.2 cells; drug 40 μM) was 16 ± 4 Per Cent, the “Per Cent Survival Alone” value (S1-M1-3.2 cells; drug 40 μM alone) was 16 ± 5 Per Cent and the “Difference Score” value (S1-M1-3.2 cells; drug 40 μM) was 0. For the same compound, the “Per Cent Survival with 3.2 μM mitoxantrone” value (S1-M1-3.2 cells; drug 80 μM) was 13 ± 2 Per Cent, the “Per Cent Survival Alone” value (S1-M1-3.2 cells; drug 80 μM alone) was 13 ± 1 Per Cent and the “Difference Score” value (S1-M1-3.2 cells; drug 80 μM) was 0. The “reversal activity in S1-M1-3.2 cells (in words)” value (S1-M1-3.2 cells; with mitoxantrone) was “not reversed”, the “Per Cent Survival with 21 μM bisantrene” value (S1-B1-20 cells; drug 0.1 μM) was 92 ± 1 Per Cent and the “Per Cent Survival Alone” value (S1-B1-20 cells; drug 0.1 μM alone) was 99 ± 4 Per Cent. For the same compound, the “Difference Score” value (S1-B1-20 cells; drug 0.1 μM) was 7, the “Per Cent Survival with 21 μM bisantrene” value (S1-B1-20 cells; drug 0.5 μM) was 10 ± 0 Per Cent and the “Per Cent Survival Alone” value (S1-B1-20 cells; drug 0.5 μM alone) was 97 ± 1 Per Cent. The “Difference Score” value (S1-B1-20 cells; drug 0.5 μM) was 87, the “Per Cent Survival with 21 μM bisantrene” value (S1-B1-20 cells; drug 1 μM) was 4 ± 0 Per Cent and the “Per Cent Survival Alone” value (S1-B1-20 cells; drug 1 μM alone) was 94 ± 2 Per Cent. The “Difference Score” value (S1-B1-20 cells; drug 1 μM) was 90, the “Per Cent Survival with 21 μM bisantrene” value (S1-B1-20 cells; drug 5 μM) was 4 ± 0 Per Cent and the “Per Cent Survival Alone” value (S1-B1-20 cells; drug 5 μM alone) was 90 ± 1 Per Cent. The “Difference Score” value (S1-B1-20 cells; drug 5 μM) was 86, the “Per Cent Survival with 21 μM bisantrene” value (S1-B1-20 cells; drug 10 μM) was 4 ± 0 Per Cent and the “Per Cent Survival Alone” value (S1-B1-20 cells; drug 10 μM alone) was 50 ± 1 Per Cent. For the same compound, the “Difference Score” value (S1-B1-20 cells; drug 10 μM) was 46, the “Per Cent Survival with 21 μM bisantrene” value (S1-B1-20 cells; drug 20 μM) was 4 ± 0 Per Cent and the “Per Cent Survival Alone” value (S1-B1-20 cells; drug 20 μM alone) was 14 ± 1 Per Cent. The “Difference Score” value (S1-B1-20 cells; drug 20 μM) was 10, the “Per Cent Survival with 21 μM bisantrene” value (S1-B1-20 cells; drug 40 μM) was 4 ± 0 Per Cent and the “Per Cent Survival Alone” value (S1-B1-20 cells; drug 40 μM alone) was 4 ± 0 Per Cent. For the same compound, the “Difference Score” value (S1-B1-20 cells; drug 40 μM) was 0, the “Per Cent Survival with 21 μM bisantrene” value (S1-B1-20 cells; drug 80 μM) was 4 ± 0 Per Cent and the “Per Cent Survival Alone” value (S1-B1-20 cells; drug 80 μM alone) was 4 ± 0 Per Cent. For the same compound, the “Difference Score” value (S1-B1-20 cells; drug 80 μM) was 0, the “reversal of resistance in P-gp positive S1-B1-20 cells (in words)” value (S1-B1-20 cells; bisantrene-selected) was “reversible” and the “potency relative to verapamil” value (P-gp expressing cells) was “at least 10 fold”.
